pIC50, pKd: −log10 of the molar value.
Tests used:
[1] = molecular target: RBD domain of S protein of SARS-CoV-2 (Severe acute respiratory syndrome coronavirus 2, UniProt P0DTC2); assay: biochemical; format: binding
[2] = molecular target: binding interactions between RBD and ACE2 (Homo sapiens, UniProt Q9BYF1); design: species or system SARS-CoV-2
ACE2 = settings: read-out: IC50 (ACE2 inhibitor); cited from earlier work

binding interactions between RBD and ACE2, sequence (Q9BYF1 whole entry, looked up): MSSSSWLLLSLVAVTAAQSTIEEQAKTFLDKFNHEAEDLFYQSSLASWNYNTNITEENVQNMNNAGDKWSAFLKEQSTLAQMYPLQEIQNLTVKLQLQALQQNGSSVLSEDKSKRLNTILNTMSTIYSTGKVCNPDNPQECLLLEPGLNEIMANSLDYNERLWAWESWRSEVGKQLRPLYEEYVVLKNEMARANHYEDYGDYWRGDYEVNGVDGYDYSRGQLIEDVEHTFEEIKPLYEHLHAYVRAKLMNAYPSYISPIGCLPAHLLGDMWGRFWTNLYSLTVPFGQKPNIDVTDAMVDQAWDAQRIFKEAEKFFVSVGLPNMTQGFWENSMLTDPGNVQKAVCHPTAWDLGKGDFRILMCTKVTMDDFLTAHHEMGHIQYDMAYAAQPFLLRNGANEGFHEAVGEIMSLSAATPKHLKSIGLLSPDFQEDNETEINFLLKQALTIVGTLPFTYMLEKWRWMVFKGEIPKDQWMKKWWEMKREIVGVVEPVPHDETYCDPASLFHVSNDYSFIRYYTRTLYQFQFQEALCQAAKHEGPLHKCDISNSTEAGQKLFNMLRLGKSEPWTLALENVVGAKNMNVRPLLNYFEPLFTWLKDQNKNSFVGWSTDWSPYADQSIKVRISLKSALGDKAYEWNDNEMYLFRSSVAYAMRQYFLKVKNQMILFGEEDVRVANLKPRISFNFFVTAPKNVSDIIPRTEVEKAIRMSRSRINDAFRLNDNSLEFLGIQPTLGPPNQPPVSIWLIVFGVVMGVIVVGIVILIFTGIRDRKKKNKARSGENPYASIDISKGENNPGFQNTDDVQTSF

Row | Structure (SMILES) | pKd [1] | effect on the binding affinity between RBD and ACE2 [2] | pIC50 (ACE2)
1 | Nc1ncnc2c1ncn2[C@@H]1O[C@H](CO)C[C@H]1O [CDCP, Cordycepin] | 4.69 |  | 
2 | C=C[C@@H]1C2=CCOC(=O)C2=CO[C@H]1O[C@@H]1O[C@H](CO)[C@@H](O)[C@H](O)[C@H]1O [GTCP, Gentiopicrin] | 4.53 |  | 
3 | CC(C)C[C@H](N[C@@H](Cc1cncn1Cc1cc(Cl)cc(Cl)c1)C(=O)O)C(=O)O [MLN-4760] |  | negligible effect | 9.36

Source: PMC8334341 (Acta Pharmacologica Sinica, 2021)
